According to BindingDB's records for doi:10.7270/Q2SB4462 (Burnham Center For Chemical Genomics, 2011):

Target: T1, Ubiquitin-conjugating enzyme E2 N (Homo sapiens, UniProt P61088)
T1 sequence (P61088 whole entry): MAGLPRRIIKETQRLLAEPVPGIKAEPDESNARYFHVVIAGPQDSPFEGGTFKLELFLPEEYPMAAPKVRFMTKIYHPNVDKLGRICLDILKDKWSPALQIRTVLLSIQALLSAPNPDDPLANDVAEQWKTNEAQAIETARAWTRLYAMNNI
Assay: UBC13 polyubiquitination inhibitor potency, dose response, biochemical, TR-FRET, reconfirmation (AID 493182)

Compound: O=C1N=c2ccccc2=C1NNC(=S)NCC1CCCO1 (stereo not given)
- IC50: 0.967 µM

Compound: Cc1cccc(NC(=S)NNC2=c3ccccc3=NC2=O)c1
- IC50: 0.594 µM

Compound: COc1ccc(CN=Nc2cc(C)nc3ccc(OC)cc23)c(OC)c1
- IC50: 6.39 µM

Compound: Cc1cc(C)c2c(c1)=C(NNC(=S)NCC1CCCO1)C(=O)N=2 (stereo not given)
- IC50: 0.509 µM

Compound: O=C1Nc2ccc([N+](=O)[O-])cc2C1=NNC(=S)NCC1CCCO1 (stereo not given)
- IC50: 0.664 µM

Compound: NC(=S)NN=C1C(=O)N(CCCl)c2ccccc21
- IC50: 10.8 µM

Compound: COC(=O)c1ccc(CN2C(=O)C(=NNC(N)=S)c3ccccc32)o1
- IC50: > 20 µM

Compound: CCOC(=O)C1C(COC(=O)c2ncc(Cl)c(Cl)c2Cl)=NC(=O)NC1C (stereo not given)
- IC50: 9.23 µM

Compound: COCCNC(=S)NN=C1C(=O)Nc2ccc([N+](=O)[O-])cc21 [1-(2-methoxyethyl)-3-[(5-nitro-2-oxoindol-3-yl)amino]thiourea]
- IC50: 1.52 µM

Compound: O=C1Nc2ccccc2/C1=N/NC(=S)Nc1ccc(O)cc1 [1-(4-hydroxyphenyl)-3-[(2-oxidanylideneindol-3-yl)amino]thiourea]
- IC50: 0.763 µM

Compound: CCCCNC(=S)N/N=C1\C(=O)Nc2ccccc21 [1-butyl-3-[(2-oxidanylideneindol-3-yl)amino]thiourea]
- IC50: 5.96 µM

Compound: CCNC(=S)NNC1=c2cc(C(C)C)ccc2=NC1=O [1-ethyl-3-[(2-oxo-5-propan-2-yl-3-indolyl)amino]thiourea]
- IC50: 2.49 µM

Compound: CCN(CC)CCOC(=O)c1ccc(N=CC(C#N)c2nc(-c3ccc4c(c3)OCO4)cs2)cc1 (stereo not given) [2-(diethylamino)ethyl 4-[[(Z)-2-[4-(1,3-benzodioxol-5-yl)-1,3-thiazol-2-yl]-2-cyano-ethenyl]amino]benzoate]
- IC50: 5.07 µM

Compound: CCN(CC)CCOC(=O)c1ccc(N=CC(C#N)c2nc(-c3cc4ccccc4oc3=O)cs2)cc1 (stereo not given) [2-(diethylamino)ethyl 4-[[(Z)-2-cyano-2-[4-(2-oxochromen-3-yl)-1,3-thiazol-2-yl]ethenyl]amino]benzoate]
- IC50: 3.5 µM

Compound: CCN(CC)CCOC(=O)c1ccc(N=CC(C#N)c2nc(-c3ccc(OC)cc3)cs2)cc1 (stereo not given) [4-[[(Z)-2-cyano-2-[4-(4-methoxyphenyl)-2-thiazolyl]ethenyl]amino]benzoic acid 2-(diethylamino)ethyl ester]
- IC50: 4.3 µM

Compound: CC(=O)N1N=C(C2C(=O)N(C)C(=O)N(C)C2=O)CC1c1ccccc1 (stereo not given) [5-(1-acetyl-5-phenylpyrazolidin-3-ylidene)-1,3-dimethyl-1,3-diazinane-2,4,6-trione]
- IC50: 19.5 µM

Compound: N=C(N)C1=CC(=O)/C(=C/C=c2ccc(=C(N)N)cc2)C=C1 [(4E)-4-[2-[4-[bis(azanyl)methylidene]cyclohexa-2,5-dien-1-ylidene]ethylidene]-3-oxidanylidene-cyclohexa-1,5-diene-1-carboximidamide;2-oxidanylethanesulfonic acid]
- IC50: 2.8 µM

Compound: C#CCOCCOCCOCCNc1nc(N2CCN(C(=O)CCCCCCCCCCNC(=O)[C@H](CCCCN)n3cc(CCCC(=O)O)nn3)CC2)nc(N2CCN(C(=O)CCCCCCCCCCNC(=O)[C@H](CCCN=C(N)N)n3cc(C[C@@H](C)CC)nn3)CC2)n1 [EK-IR]
- IC50: 3.61 µM

Compound: C#CCOCCOCCOCCNc1nc(N2CCN(C(=O)CCCCCCCCCCNC(=O)[C@H]([C@@H](C)CC)n3cc(CCCCN=C(N)N)nn3)CC2)nc(N2CCN(C(=O)CCCCCCCCCCNC(=O)[C@@H]([C@H](C)O)n3cc(C)nn3)CC2)n1 [GT-RI]
- IC50: 4.63 µM

Compound: C#CCOCCOCCOCCNc1nc(N2CCN(C(=O)CCCCCCCCCCNC(=O)Cn3cc(CCCCCN)nn3)CC2)nc(N2CCN(C(=O)CCCCCCCCCCNC(=O)[C@H]([C@@H](C)CC)n3cc(CCCCN=C(N)N)nn3)CC2)n1 [KG-RI]
- IC50: 2.11 µM

Compound: C#CCOCCOCCOCCNc1nc(N2CCN(C(=O)CCCCCCCCCCNC(=O)Cn3cc(CCCCCN)nn3)CC2)nc(N2CCN(C(=O)CCCCCCCCCCNC(=O)Cn3cc(C[C@@H](C)O)nn3)CC2)n1 [KG-TG]
- IC50: 7.41 µM

Compound: C#CCOCCOCCOCCNc1nc(N2CCN(C(=O)CCCCCCCCCCNC(=O)[C@H]([C@@H](C)CC)n3cc(CCCCCN)nn3)CC2)nc(N2CCN(C(=O)CCCCCCCCCCNC(=O)[C@H](CCCCN)n3cc(CCCC(=O)O)nn3)CC2)n1 [KI-EK]
- IC50: 6.08 µM

Compound: C#CCOCCOCCOCCNc1nc(N2CCN(C(=O)CCCCCCCCCCNC(=O)[C@@H](CCC(=O)O)n3cc(CCCCCN)nn3)CC2)nc(N2CCN(C(=O)CCCCCCCCCCNC(=O)[C@H]([C@@H](C)CC)n3cc(CCCCCN)nn3)CC2)n1 [KI-KE]
- IC50: 6.61 µM

Compound: C#CCOCCOCCOCCNc1nc(N2CCN(C(=O)[C@H](Cc3cc4ccccc4[nH]3)n3cc([C@@H](N)CC(C)C)nn3)CC2)nc(N2CCN(C(=O)[C@H](Cc3cc4ccccc4[nH]3)n3cc([C@@H](N)CC(C)C)nn3)CC2)n1 [LW-LW]
- IC50: 6.4 µM

Compound: CCOC(=O)c1c(C)c2c(n1C)CCCC2N=O (stereo not given) [MLS000026784]
- IC50: 8.75 µM

Compound: C#CCOCCOCCOCCNc1nc(N2CCN(C(=O)[C@H](CCCCN)n3cc([C@@H](N)C(C)CC)nn3)CC2)nc(N2CCN(C(=O)[C@H](Cc3cc4ccccc4[nH]3)n3cc([C@@H](N)C(C)CC)nn3)CC2)n1 (stereo not given in full) [MLS000562580]
- IC50: 2.68 µM

Compound: C#CCOCCOCCOCCNc1nc(N2CCN(C(=O)[C@H](Cc3cc4ccccc4[nH]3)n3cc([C@@H](N)C(C)CC)nn3)CC2)nc(N2CCN(C(=O)[C@H](CCCCN)n3cc([C@@H](N)CC(C)C)nn3)CC2)n1 (stereo not given in full) [MLS000562581]
- IC50: 2.07 µM

Compound: COCCNC(=S)NNC1=c2cc(C)cc(C)c2=NC1=O [MLS000774564]
- IC50: 0.561 µM

Compound: CCOC(=O)C1C(COC(=O)c2cc(OC)c(OC)c(OC)c2)=NC(=O)NC1C (stereo not given) [MLS001161811]
- IC50: 8.55 µM

Compound: Oc1c(Cc2cnc[nH]2)[nH]c(=S)n1-c1ccccc1 [MLS001163810]
- IC50: 4 µM

Compound: C#CCOCCOCCOCCNc1nc(N2CCN(C(=O)CCCCCCCCCCNC(=O)Cn3cc(C[C@@H](C)O)nn3)CC2)nc(N2CCN(C(=O)CCCCCCCCCCNC(=O)[C@H](CCCN=C(N)N)n3cc(C[C@@H](C)CC)nn3)CC2)n1 [MLS002153601]
- IC50: 4.86 µM

Compound: C#CCOCCOCCOCCNc1nc(N2CCN(C(=O)CCCCCCCCCCNC(=O)[C@H](CCCCN)n3cc(CCO)nn3)CC2)nc(N2CCN(C(=O)CCCCCCCCCCNC(=O)[C@H](CCCCN)n3cc(CCCC(=O)O)nn3)CC2)n1 [MLS002153608]
- IC50: 10.4 µM

Compound: C#CCOCCOCCOCCNc1nc(N2CCN(C(=O)CCCCCCCCCCNC(=O)[C@H](CCCCN)n3cc(C)nn3)CC2)nc(N2CCN(C(=O)CCCCCCCCCCNC(=O)[C@H](CCCN=C(N)N)n3cc(C[C@@H](C)CC)nn3)CC2)n1 [MLS002153614]
- IC50: 2.18 µM

Compound: C#CCOCCOCCOCCNc1nc(N2CCN(C(=O)CCCCCCCCCCNC(=O)[C@H](CCCCN)n3cc(C)nn3)CC2)nc(N2CCN(C(=O)CCCCCCCCCCNC(=O)[C@@H]([C@H](C)CC)n3cc(CCCCCN)nn3)CC2)n1 [MLS002153655]
- IC50: 2.23 µM

Compound: C#CCOCCOCCOCCNc1nc(N2CCN(C(=O)CCCCCCCCCCNC(=O)Cn3cc(CCCCCN)nn3)CC2)nc(N2CCN(C(=O)CCCCCCCCCCNC(=O)[C@H](CO)n3cc(CCCSC)nn3)CC2)n1 [MLS002153667]
- IC50: 4.08 µM

Compound: C#CCOCCOCCOCCNc1nc(N2CCN(C(=O)CCCCCCCCCCNC(=O)[C@H](CCCCN)n3cc(CCO)nn3)CC2)nc(N2CCN(C(=O)CCCCCCCCCCNC(=O)[C@@H]([C@H](C)O)n3cc(C)nn3)CC2)n1 [MLS002153685]
- IC50: 7.24 µM

Compound: C#CCOCCOCCOCCNc1nc(N2CCN(C(=O)CCCCCCCCCCNC(=O)Cn3cc(CCCCCN)nn3)CC2)nc(N2CCN(C(=O)CCCCCCCCCCNC(=O)[C@H]([C@@H](C)CC)n3cc(CCCCCN)nn3)CC2)n1 [MLS002153714]
- IC50: 2.29 µM

Compound: C#CCOCCOCCOCCNc1nc(N2CCN(C(=O)CCCCCCCCCCNC(=O)[C@H]([C@@H](C)CC)n3cc(CCCCCN)nn3)CC2)nc(N2CCN(C(=O)CCCCCCCCCCNC(=O)[C@H]([C@@H](C)CC)n3cc(CCCCN=C(N)N)nn3)CC2)n1 [MLS002153718]
- IC50: 2.19 µM

Compound: C#CCOCCOCCOCCNc1nc(N2CCN(C(=O)CCCCCCCCCCNC(=O)[C@@H](CCSC)n3cc(CCO)nn3)CC2)nc(N2CCN(C(=O)CCCCCCCCCCNC(=O)[C@H](CCC(=O)O)n3cc(CCCCCN)nn3)CC2)n1 [MLS002153730]
- IC50: 16 µM

Compound: C#CCOCCOCCOCCNc1nc(N2CCN(C(=O)CCCCCCCCCCNC(=O)[C@@H](CCSC)n3cc(CCO)nn3)CC2)nc(N2CCN(C(=O)CCCCCCCCCCNC(=O)[C@H](CO)n3cc(CCCCCN)nn3)CC2)n1 [MLS002153734]
- IC50: 4.24 µM

Compound: C#CCOCCOCCOCCNc1nc(N2CCN(C(=O)[C@H](CCCN=C(N)N)n3cc(C(N)[C@H](C)CC)nn3)CC2)nc(N2CCN(C(=O)[C@H](CCCN=C(N)N)n3cc(C(N)[C@@H](C)CC)nn3)CC2)n1 (stereo not given in full) [MLS002473475]
- IC50: 19.3 µM

Compound: COc1ccc2nc(C)cc(N=NCc3ccc(F)cc3)c2c1 [N-[(4-fluorophenyl)methylideneamino]-6-methoxy-2-methyl-4-quinolinamine]
- IC50: 10.1 µM

Compound: C#CCOCCOCCOCCNc1nc(N2CCN(C(=O)CCCCCCCCCCNC(=O)[C@H]([C@@H](C)CC)n3cc(CCCCN=C(N)N)nn3)CC2)nc(N2CCN(C(=O)CCCCCCCCCCNC(=O)[C@H](CCCCN)n3cc(C)nn3)CC2)n1 [RI-GK]
- IC50: 1.68 µM

Compound: CC1=CC(C)(C)N2C(=O)/C(=N\NC(N)=S)c3cccc1c32 [SMR000218901]
- IC50: 4.79 µM

Compound: CC(C)NC(=S)NNC1=c2cc(C(C)C)ccc2=NC1=O [SMR000242097]
- IC50: 3.56 µM

Compound: COc1cc(C2c3c(-c4cccs4)n[nH]c3OC(=N)C2C#N)cc(OC)c1O (stereo not given) [SMR000275523]
- IC50: 1.47 µM

Compound: CCOc1ccc(-c2csc(NC(=O)c3cccc(-n4c(O)ccc4O)c3)n2)cc1 [SMR000319795]
- IC50: > 20 µM

Compound: C#CCOCCOCCOCCNc1nc(N2CCN(C(=O)[C@H](CCCCN)n3cc([C@@H](N)C(C)CC)nn3)CC2)nc(N2CCN(C(=O)[C@H](Cc3cc4ccccc4[nH]3)n3cc([C@@H](N)CC(C)C)nn3)CC2)n1 (stereo not given in full) [SMR000391070]
- IC50: 2.07 µM

Compound: C#CCOCCOCCOCCNc1nc(N2CCN(C(=O)[C@H](CCCCN)n3cc([C@@H](N)C(C)CC)nn3)CC2)nc(N2CCN(C(=O)[C@H](Cc3ccc(O)cc3)n3cc([C@@H](N)C(C)CC)nn3)CC2)n1 (stereo not given in full) [SMR000391090]
- IC50: 10.2 µM

Compound: C#CCOCCOCCOCCNc1nc(N2CCN(C(=O)[C@H](CCCCN)n3cc([C@@H](N)CC(C)C)nn3)CC2)nc(N2CCN(C(=O)[C@H](Cc3cc4ccccc4[nH]3)n3cc([C@@H](N)Cc4ccc(O)cc4)nn3)CC2)n1 [SMR000391143]
- IC50: 2.78 µM
